We go through one compound from US10954215B2, “Compounds as modulators of ROR gamma” (Boehringer Ingelheim International GmbH, priority 2016, dated 2021).

This assay has as its target T1, RORγ (Homo sapiens, UniProt P51449).
T1 construct: expressed in transfected cells; host or cells: HEK 293 cells, transiently transfected
T1 sequence (P51449 269-508 limits assumed): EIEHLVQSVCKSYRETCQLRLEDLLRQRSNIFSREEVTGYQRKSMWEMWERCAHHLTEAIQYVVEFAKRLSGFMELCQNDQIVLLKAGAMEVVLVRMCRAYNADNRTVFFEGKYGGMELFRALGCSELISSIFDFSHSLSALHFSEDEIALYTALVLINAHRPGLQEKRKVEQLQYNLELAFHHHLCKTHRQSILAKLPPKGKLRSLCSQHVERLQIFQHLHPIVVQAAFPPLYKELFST
As to the kind of experiment: Reporter Gene Assay (RGA): inhibition of RORγ transactivation of a luciferase reporter in transiently transfected HEK 293 cells. The class given is cell-based. Conditions: HEK 293 cells cotransfected with pGL4.3 luc2P/GAL4UAS and pBIND Gal4DBD hRORC LBD; 20-24 h incubation; luciferase luminescence. As for the experimental part: Reporter Gene Assay (RGA)
A nuclear receptor transactivation assay is performed to quantitate the ability of test compounds to inhibit RORγ transactivation of a luciferase reporter. A similar assay is described in: Khan et al., Bioorganic & Medicinal Chemistry Letters 23 (2013), 532-536. The system uses transiently transfected HEK 293 cells cotransfected with two plasmids (pGL4.3, luc2P/GAL4UAS/Hygro, and pBIND, Gal4DBD hRORC LBD1-3). The positive control is co-transiently transfected with both plasmids, and the negative control contains the pGL4.3 promoter sequence. Assays are assembled in 384 well plates where transiently transfected cells and test compound at varying concentrations are incubated for 20-24 h. The next day, assays plates are taken out and equilibrated at RT for 20-30 minutes. Bright-Glo™ Luciferase Assay System is used to detect Luciferase production. After addition of Bright GLO detection reagent, the plates are incubated at RT for 20 minutes. The plates are read on an Envision plate reader to measure luminescence signal. The RLU signal is converted to POC relative to control and blank wells.
Compound dilution buffer:
Bright Glo Luciferase Assay System: Promega #E2620
Thaw lysis buffer provided in kit, add 100 mL lysis buffer to substrate powder.
In general terms: Reporter assays use an easily measured gene product as a stand-in for the process of interest.

pIC50: −log10 of the molar value.

For `CNS(=O)(=O)c1ccc(CNC(=O)N2CC(c3ccccc3)C(c3cn(C4CC4)nc3C(C)(C)C)C2)cc1` (stereo not shown) [Example 34], the pIC50 (as a rule, the negative decadic logarithm of the IC50, by convention in mol/L) is 5.89.
